The values below come from ChEMBL document CHEMBL1157539, “Thousands of chemical starting points for antimalarial lead identification” (Nature, 2010).

The assay has as its system Plasmodium falciparum. The experiment in a line: GSK_TCMDC: Inhibition of Plasmodium falciparum 3D7 in whole erythrocytes, using parasite LDH activity as an index of growth. Type of assay: functional, organism-based. The note with it: Plasmodium falciparum, 3D7.
Regarding `CS(=O)(=O)CCOCc1ccc(-c2ccc3ncnc(Nc4ccc(OCc5cccc(F)c5)c(Cl)c4)c3c2)o1`, the XC50 was determined as 803 nM.

In the case of `Cc1ccc(CNc2cc(C(F)(F)F)nc(-c3ccc(S(C)(=O)=O)cc3)n2)cc1`, the XC50 is 498 nM. The value for `CN1CC=C(c2c[nH]c3ccc(Br)cc23)CC1` was 1190 nM; that for `CS(=O)(=O)CCNCc1ccc(-c2cc3c(Nc4ccc(OCc5cccc(F)c5)c(Cl)c4)ncnc3s2)[nH]1` was 844 nM. `OC1CCCN(Cc2ccc(-c3cccc(-c4nc5ccccc5[nH]4)c3)cc2)C1` (stereo not given) yielded an XC50 of 1340 nM. For `CC(C)(C)n1nnnc1C(c1cccnc1)N(Cc1ccccc1)Cc1ccc(Cl)cc1` (stereo not given), the XC50 stood at 744 nM.

The compound `CN1CCN(c2ccc3[nH]c(-c4ccc5[nH]c(-c6ccc(O)cc6)nc5c4)nc3c2)CC1` showed an XC50 of 121 nM.

For `Cc1cc(NCCc2ccc(O)cc2)nc(NCC(c2ccccc2)c2ccccc2)n1`, the XC50 was found to be 320 nM.

As for `CC(N)(Cc1ccc(O)cc1)c1nnn[nH]1` (stereo not given), the XC50 turned out to be 969 nM. Take `CCOc1ccc(Nc2cc(C)nc(Nc3ccc(OCC)cc3)n2)cc1`: the XC50 came out at 869 nM. In turn, `O=C(NC1CC1)c1ccc(N2CCC(COc3cccc(F)c3)CC2)nc1` returned an XC50 of 1240 nM.

Compound `C[C@H](NC(=O)c1c(CN2CCC(N3CCCCC3)CC2)c(-c2ccccc2)nc2cc(O)ccc12)C1CCCCC1` had an XC50 of 759 nM.

In the case of `CCN(CC)/C(=N\C(=N)NCCCCCCNC(=N)/N=C(\Nc1ccc(Cl)cc1)N(CC)CC)Nc1ccc(Cl)cc1`, the XC50 worked out at 927 nM. In the case of `c1cnc2ccc(NCc3ccc(-c4ccc(CNC5CCCC5)cc4)cc3)cc2c1`, the XC50 turned out to be 874 nM. The value for `O=C(Nc1ccccc1)c1c[nH]cn1` was 991 nM; that for `Nc1c(Cl)cc(C(O)CNCCCCCOCCc2ccccc2)cc1C(F)(F)F` (stereo not given) was 978 nM; that for `COc1ccccc1C(=O)N1CCN(Cc2cccs2)CC1` was 869 nM. The value for `Oc1ccccc1CNCC(O)c1cc(C(F)(F)F)cc(C(F)(F)F)c1` (stereo not given) was 184 nM. On to `O=C(NC1CCC(N2CCC(c3nc4ccccc4s3)CC2)CC1)c1cc2ccccc2[nH]1` (stereo not given), for which the XC50 was determined as 926 nM. Compound `COc1ccc(NC(=O)Nc2ccc(Nc3nc(C)cc(N4CCCC4)n3)cc2)cc1` registered an XC50 of 135 nM. `CCc1cc(NC(=O)Nc2ccnc3ccccc23)ccc1OC` displayed an XC50 of 138 nM. Regarding `O=C(/C=C/c1ccc(Cl)c(Cl)c1)NCCCCCN1CCC(NC(=O)c2cc(Cl)ccc2F)CC1`, the XC50 came out at 1160 nM. The compound `CC(Cc1ccc(CSC(C)C)cc1)NCC(O)c1cccc(Cl)c1` (stereo not given) returned an XC50 of 603 nM.

In turn, `Cc1[nH]c(C)c(-c2ccc(OCc3cc(F)cc(F)c3)nc2)c(=O)c1Br` registered an XC50 of 103 nM.

Compound `CC(Cc1ccc(Cl)cc1)Nc1nc(NC2CCCC2)nc(N2CCC(C#N)(c3ccccc3)CC2)n1` (stereo not given) registered an XC50 of 715 nM. Compound `CNC(=O)c1ccc2[nH]cc(C3CCN(CC4CCC(NC(=O)/C=C/c5ccc(Cl)c(Cl)c5)CC4)CC3)c2c1` (stereo not given) came in with an XC50 of 1010 nM. With `O=C(NCc1cccc(F)c1)Nc1ccc(-c2cccc(-c3nc4cc(F)ccc4[nH]3)c2)cc1` the figure was 772 nM. The value for `O=C(Nc1cccc(-c2ccc(CN3CCC(O)CC3)cc2)c1)c1ccc(Cl)cc1` was 961 nM; that for `Oc1ccc(CCNc2nc(NCc3ccccc3Oc3ccc(C(F)(F)F)cc3)nc(N3CCNCC3)n2)cc1` was 1160 nM; that for `CC(C)CN1CCCN(Cc2cccc(NC(=O)c3cc4ccccc4s3)c2)CC1` was 1770 nM. As for `CN(C)CCN1CCN(Cc2cccc(-c3csc(-c4nc5ccccc5[nH]4)c3)c2)CC1`, the XC50 was determined as 398 nM. The value for `COC(=O)C(C)NCC(=O)c1ccccc1` (stereo not given) was 115 nM. With `C=C[C@H]1CN(CCCCCCC)CC[C@H]1CC(O)Cc1ccnc2cc(O)c(OC)cc12` (stereo not given in full) the figure was 818 nM. With `O=C(N1CCN(c2ccc(C(F)(F)F)cc2[N+](=O)[O-])CC1)C(Cl)(Cl)Cl` the figure was 713 nM; with `N#C/N=C(\NCCCCCCCCN/C(=N\C#N)NCCSCc1csc(N=C(N)N)n1)NCCCSc1csc(N=C(N)N)n1`, 844 nM. Compound `CN(C(=O)C(C)(C)Oc1ccc(Cl)cc1)C1CCN(CCCCCNC(=O)/C=C/c2ccc(Cl)c(Cl)c2)CC1` had an XC50 of 916 nM. With `COc1cc(Cc2cnc(N)nc2N)cc(OCCn2ccccc2=O)c1OC` the figure was 773 nM. On to `c1ccc(OCCCCN2CCCCC2)cc1`, for which the XC50 was determined as 537 nM. The value for `O=C(NCCCCCN1CCC(c2c[nH]c3ccccc23)C1)Nc1ccc(Cl)c(Cl)c1` (stereo not given) was 811 nM; that for `O=C(NCC1COc2ccccc2O1)c1cnc2c(c1)nc(-c1c[nH]c(-c3ccccc3)n1)n2CCSCc1c(F)cccc1Cl` (stereo not given) was 959 nM; that for `Cc1ccccc1C1CCN(C2CCC(NC(=O)/C=C/c3cccc(F)c3)CC2)CC1` (stereo not given) was 1190 nM. As for `N=C(N)Nc1nc(-c2cccc(NC(=O)NCc3ccc(OC(F)(F)F)cc3)c2)cs1`, the XC50 was 703 nM.

On to `Cc1cccc(C)c1CNc1ccnc2ccccc12`, for which the XC50 came to 1200 nM. The value for `COc1ccc2nccc([C@@H](O)CN3CCC(NCc4ccc5c(c4)NC(=O)C(C)S5)CC3)c2c1` (stereo not given in full) was 200 nM; that for `O=C(/C=C/c1ccc(Cl)c(Cl)c1)NCCCCCN1CCC(NC(=O)Nc2ccc(Cl)cc2F)CC1` was 313 nM. The value for `c1ccc(COc2ccnc(NCCCOc3cccc(CN4CCCCC4)c3)c2)cc1` was 994 nM; that for `CN(C)c1ccc(-c2csc(C(=O)NCC3CCN(Cc4cccc(C(F)(F)F)c4)C3)c2)cc1` (stereo not given) was 843 nM. With `COC(=O)c1ccc(NC(=O)c2ccc(CCN3CCC(c4nc(COCC(F)(F)F)c(-c5ccc(F)cc5)o4)CC3)cc2)cc1`, the XC50 stood at 1040 nM.

As for `O=C(Nc1ccc(OC2CCN(Cc3ccc(F)cc3)C2)c(Cl)c1)c1ccc(F)cc1` (stereo not given), the XC50 was 490 nM.

Regarding `Cc1ccc(-n2c(=O)c3cccnc3n2CC(=O)Nc2cccc(C)c2C)cc1`, the XC50 came to 865 nM. The value for `Cc1nc(NCc2ccccc2)cc(Nc2cc(NCc3ccccc3)nc(C)n2)n1` was 971 nM; that for `Cc1nc2ccc(F)cc2n1C1CCN(C(=O)Cc2ccc(F)c(F)c2)CC1` was 1410 nM. With `CN(C)Cc1cccc2nc(-c3csc(Cc4cc(Cl)ccc4OCc4ccccc4)n3)[nH]c12` the figure was 1120 nM; with `COc1cc2nc(N3CCC(CNC(=O)c4ccc(-c5ccc(C(F)(F)F)cc5)cc4)CC3)nc(N)c2cc1OC`, 127 nM. Compound `CCOc1ccc(C(C)NC(=O)Cc2ccccc2F)cc1OCC` (stereo not given) came in with an XC50 of 844 nM. Consider `COc1cc2nc(N3CCN(C(=O)c4c(Cl)nsc4-c4ccccc4Cl)CC3)nc(N)c2cc1OC`, for which the XC50 was determined as 534 nM. The compound `N=C(N)c1cc(Br)cc(NC(=O)Nc2cc(Br)cc(C(=N)N)c2)c1` displayed an XC50 of 819 nM. The value for `CC(C)c1ccc(S(=O)(=O)Nc2cccc(CCN3CCC(N4CCCCC4)CC3)c2)cc1` was 1120 nM; that for `O=C(N1CCN(c2ccnc3cc4c(cc23)N(Cc2ccccc2)CC4)CC1)C(F)(F)F` was 257 nM; that for `NC(=O)c1ccccc1OCC(=O)Nc1cccc(-c2cccc(-c3nc4ccccc4[nH]3)c2)c1` was 376 nM. `NCc1cccc(-c2cccc(CN(C(=O)Nc3ccccc3)C3CCN(Cc4ccccc4)CC3)c2)c1` yielded an XC50 of 829 nM. Regarding `Nc1cccc(CNCc2ccc(-c3cccc(-c4nc5cc(F)ccc5[nH]4)c3)cc2)c1`, the XC50 is 213 nM. The value for `CCCCOc1c(CCNCCCCNCCc2cc(F)c3ccccc3c2OCCCC)cc(F)c2ccccc12` was 629 nM. As for `CCOc1cc(Cc2cnc(N)nc2N)cc(OCC)c1O`, the XC50 was found to be 1170 nM. With `COc1ccc(C(=O)Nc2ccc(Nc3nc(C)cc(N(C)C)n3)cc2)c(OC)c1` the figure was 868 nM; with `O=C(NCC1CCN(CCN2CCc3ccc4c(c3C2)OCO4)CC1)c1ccc(-c2ccc(C(F)(F)F)cc2)cc1`, 861 nM. With `COc1cc(C(=O)N2C(c3nccs3)C(C(=O)N(OC)C(C)c3ccccc3)CC2(CC(C)C)C(=O)OC(C)(C)C)ccc1C(C)(C)C` (stereo not given) the figure was 1070 nM; with `Cn1cnc(-c2ccc3c(c2)CCN(CCC2CCC(NC(=O)/C=C/c4ccc(F)cc4)CC2)CC3)c1` (stereo not given), 904 nM. Compound `C[C@H](Cc1ccc(OCCCCCCOc2ccc(C[C@@H](C)NC[C@H](O)c3cccc(Cl)c3)cc2)cc1)NC[C@H](O)c1cccc(Cl)c1` displayed an XC50 of 296 nM. `COc1cc(-c2ccc(-c3cnc(N)nc3OC)[nH]2)cc(OC)c1OC` had an XC50 of 729 nM. `Cc1cc2ccc(CNCCc3ccccc3Br)cc2nc1N` had an XC50 of 514 nM. With `c1csc(-c2nc(NCC3CCCO3)ncc2-c2ccsc2)n1` (stereo not given) the figure was 487 nM; with `COc1nc2c(N3CCN(CCNCc4ccc5c(n4)NC(=O)CS5)CC3)ccnc2cc1F`, 713 nM. With `CCc1ccc(O)c(-c2cc(C(=O)Nc3cccnc3)[nH]n2)c1` the figure was 689 nM; with `O=C(Nc1ccc2c(c1)CCN2C1CCN(Cc2cccc3cc[nH]c23)C1)c1ccco1` (stereo not given), 1210 nM; with `Cn1c(Nc2cc(C(C)(C)C)on2)nc2cc(Nc3ccnc(Nc4cccc(CS(C)(=O)=O)c4)n3)ccc21`, 571 nM. The compound `CC(C)C[C@@H](/C=N/NC(N)=O)NC(=O)[C@H](CC(C)C)NC(=O)[C@H](CC(C)C)NC(=O)OCc1ccccc1` had an XC50 of 150 nM. Consider `CN(C)CCCOc1ccc(CNCC(C)(C)c2nc(-c3ccc(Cl)c(O)c3)c(-c3ccncc3)[nH]2)cc1`, for which the XC50 came out at 708 nM.

`COc1ccc2nccc([C@@H](O)CN3CCC(NCc4nc5c([N+](=O)[O-])cccc5[nH]4)CC3)c2c1` showed an XC50 of 705 nM.

`CC(C)C[C@H](NC(=O)c1cc(-c2ccc(F)cc2)no1)C(=O)O.CC(C)C[C@H](NC(=O)c1conc1-c1ccc(F)cc1)C(=O)O`: the XC50 worked out at 979 nM.

For `Cc1ccc(O)c(C(=O)c2cc(C(=O)Nc3ccccc3C)c(=O)n(-c3ccccc3C)c2)c1`, the XC50 was found to be 784 nM. `CCCCCCCN(Cc1ccc(OC(C)(C)C(=O)OCC)cc1)C(=O)Nc1ccccc1OCC` registered an XC50 of 1030 nM. Compound `CC(C)CN1CCC(COc2ccc3ncn(-c4cc(O[C@H](C)c5ccccc5C(F)(F)F)c(C(N)=O)s4)c3c2)CC1` had an XC50 of 618 nM. With `COC(=O)c1cccc(CNCc2cccc(-c3ccc(-c4nc5ccccc5[nH]4)s3)c2)c1` the figure was 491 nM. With `Cc1ccc(Cn2cnc3cc(C(=O)Nc4ccc(-c5ccc(CN(C)C)cc5)cc4)ccc3c2=O)o1` the figure was 1260 nM.
